# Experimental data: PubChem BioAssay AID652225 (The Scripps Research Institute Molecular Screening Center, 2013)
# Calls of active or inactive are those of the source.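 The calls were made as follows: active = compounds inhibiting PP5 with an IC50 below 50 µM; inactive = IC50 of 50 µM or more.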
# Target: Serine/threonine-protein phosphatase 5 (Homo sapiens) (UniProt P53041)
# Test: PP5 inhibition of phosphorylase dephosphorylation, late-stage follow-up, selectivity assay for PP1 inhibitor project, biochemical, radiolabel, glycogen phosphorylase substrate, set 2 (AID 652225)
# Conditions: purified PP5c, 32P-glycogen phosphorylase dephosphorylation, scintillation
# Sequence of Serine/threonine-protein phosphatase 5 (Homo sapiens) (P53041 whole entry, looked up): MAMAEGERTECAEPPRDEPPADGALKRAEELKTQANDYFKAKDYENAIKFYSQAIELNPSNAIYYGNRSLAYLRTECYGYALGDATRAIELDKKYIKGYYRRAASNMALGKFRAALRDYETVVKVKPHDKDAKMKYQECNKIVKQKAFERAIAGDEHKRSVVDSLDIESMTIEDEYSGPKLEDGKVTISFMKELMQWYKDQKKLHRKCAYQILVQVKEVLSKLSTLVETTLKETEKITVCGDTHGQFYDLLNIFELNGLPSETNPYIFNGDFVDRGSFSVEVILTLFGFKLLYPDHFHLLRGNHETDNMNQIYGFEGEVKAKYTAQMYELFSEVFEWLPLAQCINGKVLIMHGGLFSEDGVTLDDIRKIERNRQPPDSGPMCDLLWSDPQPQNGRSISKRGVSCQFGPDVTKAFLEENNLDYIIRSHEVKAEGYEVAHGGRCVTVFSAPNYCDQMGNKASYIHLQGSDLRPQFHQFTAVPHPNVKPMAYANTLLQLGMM
row,SMILES,IC50
1,COc1ccc(NC(=O)C2C3CCC(O3)C2C(=O)O)c(OC)c1 (stereo not given),4.16 µM
2,CCn1c2ccccc2c2cc(NC(=O)COC(=O)c3ccc(NC(=O)CC#N)cc3)ccc21,> 50 µM (inactive)
3,N#Cc1c(-c2ccc(Cl)cc2)cc(-c2cccs2)nc1SCC(=O)O,> 50 µM (inactive)
4,CCOC(=O)c1sc2nc3c(SCC(=O)O)cc(C(=O)c4cc(F)ccc4O)cn3c(=O)c2c1C,> 50 µM (inactive)
5,CN1CCN(C(c2ccccn2)c2cc(Cl)c3cccnc3c2O)CC1 (stereo not given),> 50 µM (inactive)
